Like-named read-outs stand apart in the source and are kept apart here.
Tests used:
[1] = Neutral red cell viability of JEG-3 cells with SLS or PFOA in 10% or 2.5% FBS; conditions: human
Method: (§1) The choriocarcinoma-derived JEG-3 cell-line (ATCC® HTB-36™, Manassas, VA, USA), was grown as recommended by ATCC: Minimum Essential Medium Eagle's medium supplemented with 10% fetal bovine serum, 2 mM of glutamine, 50 IU/mL of penicillin and 50 IU/mL of streptomycin. Cells were detached using trypsin, counted, and then seeded at 80,000 cells/mL in 96-well microplates (200 μL by well) and Nunc® Lab-Tek® II Chamber Slide™ system for immunostaining.
(§2) Cells were incubated with sodium lauryl sulfate or perfluorooctanoic acid diluted in culture medium supplemented with either 2.5% or 10% FBS. After 24 hours, cell viability was evaluated using the neutral red assay. Neutral Red solution at 0.4% in water was diluted in culture medium with a ratio of 1:79 to give a final concentration of 50 μg/mL. Neutral Red was distributed in the plates for a 3-hour incubation time at 37° C. The cells were then rinsed with PBS to remove any remaining unincorporated dye. The dye was then released from the cells using a lysis solution (1% acetic acid, 50% ethanol and 49% H2O) and the fluorescence was measured (λex=540 nm, λem=600 nm) using Spark microplate fluorometer (Tecan, Mannedorf, Switzerland).

[2] = system: JEG-3 cells; assay: as above; conditions: for living cells: 2.5% FBS, 24 h
Method: as §1, §2

[3] = system: JEG-Tox cells; assay: Chromatin condensation (Hoechst 33342) as a hallmark of apoptosis; type: cell-based, human; conditions: 24 h
Method: The UV fluorescent probe Hoechst 33342 enters living and apoptotic cells, intercalating into DNA. The fluorescent signal is proportional to chromatin condensation in apoptosis. The cells were incubated with Hoechst 33342 at 10 μg/mL for 30 minutes at room temperature. The fluorescence signal was read (λex=360 nm, λem=460 nm) using a cytofluorometer (Spark).

[4] = Neutral Red cell viability assay on JEG-Tox cells, 72 h; type: cell-based, human; conditions: human, 100 μM, 72 h, read-out: cell viability
Method: (§3) The JEG-3 human trophoblast cell line, derived from a human placental carcinoma, was obtained from the American Type Culture Collection (ATCC HTB-36). Cells were cultured in minimum Essential medium, supplemented with 10% fetal bovine serum (FBS), 1% L-glutamine, 0.5% penicillin and streptomycinin, in 75 cm2 polystyrene flasks. Cell cultures were maintained in a cell culture incubator (37° C., saturated humidity, 5% CO2). When the JEG-3 cells reached subconfluency, they were detached using trypsin-EDTA and counted. The cellular suspension was diluted and seeded either in 96-well microplates at a cellular density of 80,000 cells/mL or in 6-well microplates at 120,000 cells/mL, then kept at 37° C. for 24 h. The cells were incubated with EDCs according to example 1.
(§4) Cell viability was evaluated using the Neutral Red assay. The Neutral Red solution at 0.4% (m/v in water) was diluted in cell culture medium to obtain a working concentration of 50 μg/mL. […] The cells were then rinsed with PBS and lysed with a solution of acetic acid-ethanol (ethanol 50.6%, water 48.4% and acetic acid 1%). After homogenization, the fluorescence signal was scanned (λexc=540 nm, λem=600 nm) with a Tecan Spark microplate reader (Mannedorf, Switzerland). The cell viability was calculated compared to the control cells (the fluorescence of the control cells as 100% viability).

[5] = system: JEG-Tox cells; assay: as above; type: cell-based, human; conditions: 72 h
Method: as §3, §4

[6] = molecular target: T1, P2X7 receptor (Homo sapiens, UniProt Q99572); type: cell-based; conditions: for endocrine disruptor according to the definition of the European Union: JEG-3 cells in 2.5% serum, by measuring the activity of the P2X7 receptor
T1 construct: P2X7 receptor is expressed by human placenta and JEG-Tox; endogenous in cells; host or cells: JEG-3 human trophoblast cell line (ATCC HTB-36) cultured in 2.5% FBS (JEG-Tox)
T1 sequence (Q99572 1-595): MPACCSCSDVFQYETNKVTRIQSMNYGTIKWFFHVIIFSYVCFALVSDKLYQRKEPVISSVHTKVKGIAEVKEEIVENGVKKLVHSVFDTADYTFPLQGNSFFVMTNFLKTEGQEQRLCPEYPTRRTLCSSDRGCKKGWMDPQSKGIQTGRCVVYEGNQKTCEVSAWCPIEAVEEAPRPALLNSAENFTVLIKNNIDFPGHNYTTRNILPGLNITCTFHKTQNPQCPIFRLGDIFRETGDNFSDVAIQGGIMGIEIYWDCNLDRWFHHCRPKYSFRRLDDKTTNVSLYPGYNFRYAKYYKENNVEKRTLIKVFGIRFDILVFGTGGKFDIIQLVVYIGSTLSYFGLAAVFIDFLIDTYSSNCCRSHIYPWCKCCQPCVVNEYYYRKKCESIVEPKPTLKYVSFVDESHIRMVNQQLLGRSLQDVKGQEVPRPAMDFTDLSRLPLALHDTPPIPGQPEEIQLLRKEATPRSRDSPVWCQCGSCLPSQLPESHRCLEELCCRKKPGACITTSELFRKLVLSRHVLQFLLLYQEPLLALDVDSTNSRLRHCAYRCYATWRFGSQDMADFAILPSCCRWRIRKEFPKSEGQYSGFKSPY
Method: (§5) P2X7 cell death receptor activation was evaluated using the YO-PRO-1® assay (Rat et al. J Biol Methods. 2017 Jan. 20; 4(1):e64). YO-PRO-1® probe only enters into cells after P2X7 receptor activation-induced pore opening, and binds to DNA, emitting fluorescence. A 1 mM YO-PRO-1 stock solution was diluted at 1/500 in PBS just before use and distributed into the wells of the microplate. After a 10-minute incubation time at room temperature, fluorescence signal was read (λex=491 nm, λem=509 nm) with a Spark cytofluorometer.
as §5, with “al., 2017).” for “al. J Biol Methods. 2017 Jan. 20; 4(1):e64).”, “(λex=485” for “(λex=491”, “λem=531” for “λem=509”

[7] = system: caspase-1; assay: Caspase 1 activity, Caspase-Glo 1 Inflammasome Assay; type: cell-based, human; conditions: 72 h
Method: Caspase 1 activity was evaluated using the Caspase-Glo® 1 1 Inflammasome Assay kit. The assay was performed according to the manufacturer's instructions. Luminescence was quantified with a Spark microplate reader.
Caspase 1 activity was evaluated using the Caspase-Glo®1 Inflammasome Assay kit. The assay was performed according to the manufacturer's instructions. Luminescence was quantified with a Spark microplate reader.

[8] = system: caspase-9; assay: Caspase 9 activity, Caspase-Glo 9 Assay; type: cell-based, human; conditions: 72 h
Method: Caspase 9 activity was evaluated using the Caspase-Glo® 9 Assay kit. The assay was performed according to the manufacturer's instructions. Luminescence was quantified with a Spark microplate reader.

[9] = system: JEG-Tox cells; assay: Reactive Oxygen Species (ROS) production, H2DCF-DA assay; type: cell-based, human; conditions: 48 h
Method: Intracellular ROS were measured using 2′,7′-dichlorodihydro-fluorescein diacetate (H2DCF-DA, Life Technologies), which is hydrolyzed by cell esterases in 2′,7′-dichlorodihydrofluorescein and oxidized by ROS in highly fluorescent 2′,7′-dichlorofluorescein. A 10 μM solution of H2DCF-DA was distributed into wells. After a 20-min incubation period at 37° C., the fluorescence signal was read (λex=485 nm, λem=535 nm) using a Spark microplate reader.

Molecule `O=C(O)C(F)(F)C(F)(F)C(F)(F)C(F)(F)C(F)(F)C(F)(F)C(F)(F)F` [PFOA, perfluorooctanoic acid] has a viability at 24 h, 120 μg/mL [1] of 85%, a living cells ([2]; 80 μg/mL) of 68% and a living cells ([2]; 120 μg/mL) of 27%. For the same molecule, the “concentration at which cytotoxicity was revealed” value ([2]; diluted in 2.5% FBS) was 200 µM, the “concentration at which only a slight loss of cell viability was observed” value ([2]; diluted in 10% FBS) was 300 µM and the “concentration at which chromatin condensation was initiated” value [3] was 20 µg/mL.
With `CC(C)(c1ccc(O)cc1)c1ccc(O)cc1` [bisphenol A, Bisphenol A] the viability at 72 h, 100 µM ([4]; JEG-Tox cells) was 18%, the “concentration up to which no loss of cell viability was observed” value [5] was “up to 20 μM” and the “cytotoxicity (concentration)” value ([5]; Table 4 summary, loss of viability >= 30% counted as cytotoxic) was “No”. For the same molecule, the “P2X7 receptor activation compared to control” value ([6]; 20 μM, 72 h) was 1.21 fold change, the “P2X7 receptor activation compared to control” value ([6]; 25 μM, 72 h) was 1.26 fold change and the “P2X7 receptor activation compared to control” value ([6]; 50 μM, 72 h) was 1.34 fold change. For the same molecule, the “endocrine disruptor according to the definition of the European Union” value [6] was “is an endocrine disruptor”, the “P2X7 receptor activation (in words)” value ([6]; JEG-Tox, 72 h) was “triggered P2X7 receptor activation” and the “P2X7 activation (concentration)” value ([6]; Table 4 summary, 72 h) was 5 to 20 µM. For the same molecule, the “caspase-1 activity compared to control” value ([7]; 50 μM) was 1.57 fold change, the “effect on caspase-1 activity” value [7] was “activated caspase-1” and the “Casp-1 activation (concentration)” value ([7]; Table 4 summary) was 20 µM. The “caspase-1 activity compared to control” value ([7]; highest concentration tested) was 1.64 fold change, the “caspase-9 activity compared to control” value ([8]; 50 μM (highest concentration)) was 1.28 fold change and the “effect on ROS production” value [9] was “no effect”.
In the case of `Oc1ccc(Cc2ccc(O)cc2)cc1` [bisphenol F, Bisphenol F], the “concentration at which chromatin condensation was initiated” value [3] is reported as 5 µg/mL, the viability at 72 h, 100 µM [4] is reported as 64% and the “P2X7 receptor activation compared to control” value ([6]; 25 μM, 72 h) is reported as 1.24 fold change. The “P2X7 receptor activation compared to control” value ([6]; 50 μM, 72 h) was 1.46 fold change, the “endocrine disruptor according to the definition of the European Union” value [6] was “corresponds also to an endocrine disruptor” and the “caspase-1 activity compared to control” value ([7]; 25 μM) was 1.60 fold change. The “caspase-1 activity compared to control” value ([7]; 50 μM) was 2.61 fold change, the “caspase-9 activity compared to control” value ([8]; 25 μM) was 1.47 fold change and the “caspase-9 activity compared to control” value ([8]; 50 μM (highest concentration)) was 1.67 fold change. The “ROS production compared to control” value ([9]; 25 μM) was 2.5 fold change and the “ROS production compared to control” value ([9]; 50 μM) was 2.5 fold change.

From patent publication US20240118268A1, “BIOMARKERS ON CELLULAR ENDOCRINE MODELS FOR ENDOCRINE DISRUPTION ASSESSMENT” (priority 2020, published 2024)
